# According to patent US10668039B2, “Methods for treatment of adenoid cystic carcinoma” (THE CHILDREN'S MEDICAL CENTER CORPORATION, priority 2016, dated 2020):
# Test system: ACC PDX models
# Experiment: ATRA comparison TGI studies in ACC PDX models
# Type: in vivo
# Conditions: ATRA 8 mg/kg to 32 mg/kg; tamibarotene 2 mg/kg
# Method: The TGI studies in ACC PDX models were repeated in order to compare the original ATRA dose (3 or 4 mg/ml) against a more physiologically relevant dose of ATRA (8 mg/kg) and an alternative retinoid Tamibarotene (originally developed for ATRA-resistant cancer settings, approved in Japan and currently in development at Syros Pharmaceuticals).
smiles,measurement,value
"CC1(C)CCC(C)(C)c2cc(NC(=O)c3ccc(C(=O)O)cc3)ccc21 [tamibarotene, 4-[(1,1,4,4-tetramethyltetralin-6-yl)carbamoyl]benzoic acid]",tumor growth inhibition in the PDX studies,showed tumor growth inhibition
